# Measurements reported in patent publication US11655239B2 (SHANGHAI INSTITUTE OF MATERIAL MEDICA, CHINESE ACADEMY OF …, priority 2019, dated 2023).
# Assays:
# [1] = test system: pulmonary fibrosis induced by bleomycin in mice; assay: MASSON staining and α-SMA immunohistochemical staining of lung sections; type: in vivo, mouse; conditions: Effect example 5, 30, 60, 90 mg/kg oral qd 12 days
# Experimental: The grouping of mice is the same as that in Effect example 2.
# 1) Dewaxing to water of the paraffin sections: the sections were put into xylene I (20 minutes)-xylene II (29 minutes)-absolute ethanol I (5 minutes)-absolute ethanol II (5 minutes)-75% ethanol (5 minutes), and then washed with tap water.
# 2) Potassium dichromate staining: the sections were soaked in potassium dichromate overnight and washed with tap water.
# 3) Iron hematoxylin staining: iron hematoxylin solution A and B were mixed in an equal ratio to form an iron hematoxylin staining solution, then the sections were put into iron hematoxylin for about 3 minutes, washed with tap water, differentiated with a solution of hydrochloric acid in ethanol, and then rinsed with tap water.
# 4) Ponceau red acid fuchsin staining: the sections were put into a Ponceau red acid fuchsin solution for 5 to 10 minutes and rinsed with tap water.
# 5) Phosphomolybdic acid staining: the sections were put into an aqueous phosphomolybdic acid solution for 1 to 3 minutes.
# 6) Aniline blue staining: after the phosphomolybdic acid staining, the sections were not washed with water, but directly put into an aniline blue staining solution for staining for 3 to 6 minutes.
# 7) Differentiation: the sections were differentiated with 1% glacial acetic acid, and dehydrated with two cylinders of absolute ethanol. […]
# DDR2 = assay: Phosphorylation level of DDR2 (Western Blot); type: cell-based, human; conditions: MRC-5, TGF-β1 treatment
# Experimental: 1) Preparation of cell protein samples: the cell culture liquid was discarded, wash was performed once with PBS, and samples were collected by adding 1×SDS-Loading. after the samples were collected, they were placed in a metal bath at 100° C., and the samples were boiled for 10 minutes, and then the samples were stored at 4° C. for waiting for subsequent test.
# 2) Gel preparation and sample loading: according to the molecular weight of the detected protein, different concentrations of separation gel were selected. after filling the 1× electrophoresis buffer, an equal volume of protein sample 4 μl and protein marker were added on the far left to right in sequence.
# When the sample was in the concentrated gel, the voltage was set to 80 V; when the sample was electrophoresed to the separation gel, the voltage was increased to 120 V until the bromophenol blue was electrophoresed to reach the bottom of the gel, and the electrophoresis ended. […]
# 8) Secondary antibodies: the film with the primary antibodies was rewarmed and incubated for about half an hour, and then the primary antibodies were recovered and the film was washed quickly with TBST solution 3 times, 10 minutes each time. […] The dilution ratio of the secondary antibody dedicated for DDR2 was 1:5000; The dilution ratio for the rest of the secondary antibodies were 1:8000, ready for use. […]
structure (smiles),measurement,setting,value
"O=C(Nc1cccc(C(F)(F)F)c1)c1ccc(C2CC2)c(-c2ccc3nc(Nc4cnn(C5CC5)c4)ncc3c2)c1 [Compound S15, 4-cyclopropyl-3-(2-((1-cyclopropyl-1H-pyrazol-4-yl)amino)quinazolin-6-yl)-N-(3-(trifluoromethyl)phenyl)benzamide]","expression of collagen and α-SMA (staining, immunohistochemistry)",[1],decrease the expression of collagen and α-SMA in a dose-dependent manner
same,"pulmonary fibrosis, MASSON staining",[1],"significantly reduce BLM-induced lung injury and inflammation, and can also reduce pulmonary fibrosis"
same,phosphorylation level of DDR2,DDR2,effectively inhibit the phosphorylation level of DDR2
